≈ marks a conversion by molar mass, not a printed value.
Assays:
[1] = Metabolic stability in mouse liver microsomes assessed as parent compound remaining at 1 uM preincubated for 5 mins followed by NADPH addition after 30 mins by LC-MS/MS analysis; format: ADME, Microsome; details: read-out: Stability
[2] = Metabolic stability in rat liver microsomes assessed as parent compound remaining at 1 uM preincubated for 5 mins followed by NADPH addition after 30 mins by LC-MS/MS analysis; format: ADME, Microsome; details: read-out: Stability
[3] = Metabolic stability in human liver microsomes assessed as parent compound remaining at 1 uM preincubated for 5 mins followed by NADPH addition after 30 mins by LC-MS/MS analysis; format: ADME, Microsome; details: read-out: Stability
[4] = molecular target: T1, Nuclear receptor ROR-gamma (Homo sapiens, UniProt P51449); assay: Transactivation of recombinant GAL4-DBD fused RORgammat LBD (unknown origin) expressed in HEK293T cells incubated for 18 to 24 hrs by dual-Glo luciferase assay; format: cell-based
T1 sequence (P51449 whole entry): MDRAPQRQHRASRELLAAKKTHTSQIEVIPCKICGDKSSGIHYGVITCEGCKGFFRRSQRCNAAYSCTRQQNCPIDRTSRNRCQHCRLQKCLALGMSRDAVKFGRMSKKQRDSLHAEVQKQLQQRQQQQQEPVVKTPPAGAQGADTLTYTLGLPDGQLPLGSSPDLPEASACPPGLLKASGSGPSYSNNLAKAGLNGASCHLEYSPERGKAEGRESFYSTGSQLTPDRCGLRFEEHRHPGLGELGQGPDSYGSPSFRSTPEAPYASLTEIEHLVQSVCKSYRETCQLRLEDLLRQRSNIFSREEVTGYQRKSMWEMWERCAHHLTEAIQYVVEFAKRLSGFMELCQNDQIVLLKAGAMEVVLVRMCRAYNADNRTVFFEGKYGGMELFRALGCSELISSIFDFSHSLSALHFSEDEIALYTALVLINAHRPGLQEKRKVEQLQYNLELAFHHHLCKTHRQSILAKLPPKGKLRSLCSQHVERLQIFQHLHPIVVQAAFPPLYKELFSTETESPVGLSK

Cytochrome P450 1A2 = molecular target: T2, Cytochrome P450 1A2 (Homo sapiens, UniProt P05177); assay: Inhibition of CYP1A2 in human liver microsomes using phenacetin as substrate preincubated for 5 mins followed by NADPH addition measured after 10 mins by LC-MS/MS analysis
T2 sequence (P05177 whole entry): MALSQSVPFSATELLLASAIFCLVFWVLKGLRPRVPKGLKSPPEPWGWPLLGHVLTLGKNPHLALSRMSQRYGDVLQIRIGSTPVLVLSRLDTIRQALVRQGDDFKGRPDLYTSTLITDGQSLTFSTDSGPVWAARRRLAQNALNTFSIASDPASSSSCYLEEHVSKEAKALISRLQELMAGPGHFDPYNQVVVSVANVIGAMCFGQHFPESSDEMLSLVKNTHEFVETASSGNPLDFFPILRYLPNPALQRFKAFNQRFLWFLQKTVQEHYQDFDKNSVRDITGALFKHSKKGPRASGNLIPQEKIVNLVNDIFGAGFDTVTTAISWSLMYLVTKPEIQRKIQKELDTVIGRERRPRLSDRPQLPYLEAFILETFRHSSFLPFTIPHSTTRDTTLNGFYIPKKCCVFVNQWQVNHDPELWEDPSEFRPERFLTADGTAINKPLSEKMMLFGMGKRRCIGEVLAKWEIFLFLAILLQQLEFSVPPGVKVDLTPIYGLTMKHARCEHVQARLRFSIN

Cytochrome P450 2C9 = Cytochrome P450 2C9 (Homo sapiens, UniProt P11712); assay: Inhibition of CYP2C9 in human liver microsomes using diclofenac as substrate preincubated for 5 mins followed by NADPH addition measured after 10 mins by LC-MS/MS analysis
Cytochrome P450 2C9, sequence (P11712 whole entry): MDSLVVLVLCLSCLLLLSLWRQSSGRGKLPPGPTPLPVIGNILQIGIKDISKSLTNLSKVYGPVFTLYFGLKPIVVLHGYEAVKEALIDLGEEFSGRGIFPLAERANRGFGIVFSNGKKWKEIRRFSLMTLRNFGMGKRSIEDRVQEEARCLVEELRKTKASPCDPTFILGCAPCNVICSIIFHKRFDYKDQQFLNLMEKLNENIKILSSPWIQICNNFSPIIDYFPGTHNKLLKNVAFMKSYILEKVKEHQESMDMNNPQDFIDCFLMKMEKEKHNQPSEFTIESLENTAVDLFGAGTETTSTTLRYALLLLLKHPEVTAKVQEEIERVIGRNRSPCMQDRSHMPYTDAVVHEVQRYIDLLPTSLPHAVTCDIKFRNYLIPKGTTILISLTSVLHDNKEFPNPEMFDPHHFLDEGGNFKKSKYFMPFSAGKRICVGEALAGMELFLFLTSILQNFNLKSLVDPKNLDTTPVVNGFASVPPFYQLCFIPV

Cytochrome P450 2C19 = Cytochrome P450 2C19 (Homo sapiens, UniProt P33261); assay: Inhibition of CYP2C19 in human liver microsomes using (S)-mephenytoin as substrate preincubated for 5 mins followed by NADPH addition measured after 40 mins by LC-MS/MS analysis
Cytochrome P450 2C19, sequence (P33261 whole entry): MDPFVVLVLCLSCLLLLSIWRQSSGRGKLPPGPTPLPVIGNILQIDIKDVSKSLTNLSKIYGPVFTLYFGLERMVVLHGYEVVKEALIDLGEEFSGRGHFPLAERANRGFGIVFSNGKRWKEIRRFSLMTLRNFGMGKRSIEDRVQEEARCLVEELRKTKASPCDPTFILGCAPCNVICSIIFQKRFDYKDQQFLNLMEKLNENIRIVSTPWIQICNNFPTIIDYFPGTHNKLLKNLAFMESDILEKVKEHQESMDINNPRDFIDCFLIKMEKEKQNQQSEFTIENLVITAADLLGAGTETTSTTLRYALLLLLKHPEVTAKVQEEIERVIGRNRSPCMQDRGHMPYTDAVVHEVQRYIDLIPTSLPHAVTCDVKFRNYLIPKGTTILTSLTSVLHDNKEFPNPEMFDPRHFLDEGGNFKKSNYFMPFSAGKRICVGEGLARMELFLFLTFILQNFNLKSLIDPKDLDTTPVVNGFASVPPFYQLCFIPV

Cytochrome P450 2D6 = Cytochrome P450 2D6 (Homo sapiens, UniProt P10635); assay: Inhibition of CYP2D6 in human liver microsomes using dextromethorphan as substrate preincubated for 5 mins followed by NADPH addition measured after 10 mins by LC-MS/MS analysis
Cytochrome P450 2D6, sequence (P10635 whole entry): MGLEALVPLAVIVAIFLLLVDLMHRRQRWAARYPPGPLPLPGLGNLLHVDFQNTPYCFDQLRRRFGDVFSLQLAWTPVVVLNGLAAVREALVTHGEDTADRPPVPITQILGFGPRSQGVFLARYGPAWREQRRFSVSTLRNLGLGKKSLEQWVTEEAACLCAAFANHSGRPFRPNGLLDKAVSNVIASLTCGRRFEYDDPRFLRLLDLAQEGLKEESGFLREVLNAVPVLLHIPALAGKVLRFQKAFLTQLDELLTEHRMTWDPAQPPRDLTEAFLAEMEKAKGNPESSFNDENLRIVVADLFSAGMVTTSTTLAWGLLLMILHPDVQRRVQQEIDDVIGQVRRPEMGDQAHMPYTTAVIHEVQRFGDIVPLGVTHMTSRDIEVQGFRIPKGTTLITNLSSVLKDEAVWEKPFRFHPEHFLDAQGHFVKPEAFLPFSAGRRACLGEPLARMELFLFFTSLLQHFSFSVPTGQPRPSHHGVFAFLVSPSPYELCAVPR

Cytochrome P450 3A4 [5] = molecular target: T3, Cytochrome P450 3A4 (Homo sapiens, UniProt P08684); assay: Inhibition of CYP3A4 in human liver microsomes using testosterone as substrate preincubated for 5 mins followed by NADPH addition measured after 10 mins by LC-MS/MS analysis
T3 sequence (P08684 whole entry): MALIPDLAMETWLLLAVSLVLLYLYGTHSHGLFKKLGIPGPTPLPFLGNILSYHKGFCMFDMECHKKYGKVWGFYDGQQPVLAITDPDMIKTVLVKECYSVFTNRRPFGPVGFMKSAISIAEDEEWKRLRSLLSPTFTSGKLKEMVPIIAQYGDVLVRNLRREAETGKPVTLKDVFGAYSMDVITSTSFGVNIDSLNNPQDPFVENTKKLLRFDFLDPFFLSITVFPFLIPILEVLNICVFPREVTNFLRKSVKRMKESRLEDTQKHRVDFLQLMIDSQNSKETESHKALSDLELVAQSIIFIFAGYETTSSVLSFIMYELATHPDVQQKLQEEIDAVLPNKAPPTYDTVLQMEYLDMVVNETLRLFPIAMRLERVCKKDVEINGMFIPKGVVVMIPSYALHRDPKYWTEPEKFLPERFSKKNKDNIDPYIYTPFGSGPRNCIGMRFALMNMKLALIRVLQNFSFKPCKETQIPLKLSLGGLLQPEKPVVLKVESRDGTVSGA

[6] = Solubility of the compound at pH 2.1; details: buffer
[7] = Solubility of the compound at pH 4; details: buffer
[8] = Solubility of the compound at pH 7.4; details: buffer
[9] = molecular target: T1, Nuclear receptor ROR-gamma; assay: Inverse agonist activity at GST-tagged RORgammat LBD (unknown origin) using fluorescein-D22 co-activator peptide as substrate incubated for 1 hr by TR-FRET assay
Cytochrome P450 3A4 [10] = molecular target: T3, Cytochrome P450 3A4; assay: Inhibition of CYP3A4 in human liver microsomes using midazolam as substrate preincubated for 5 mins followed by NADPH addition measured after 10 mins by LC-MS/MS analysis

Compound | remaining at 0.5 h, 1 µM [1] [%] | remaining at 0.5 h, 1 µM [2] [%] | remaining at 0.5 h, 1 µM [3] [%] | IC50 [4] [nM] | further results
O=C(O)c1ccc(-n2cc(C(=O)c3c(Cl)cccc3Cl)c3cccc(F)c32)c(F)c1 | 72 | 73 | 65 |  | 
O=C(O)c1ccc(-n2cc(C(=O)c3c(Cl)cccc3Cl)c3cccnc32)c(F)c1 | 92 | 90 | 100 | 32 | IC50 (Cytochrome P450 1A2): > 50000 nM; IC50 (Cytochrome P450 2C9): 16000 nM; IC50 (Cytochrome P450 2C19): > 50000 nM; IC50 (Cytochrome P450 2D6): > 10000 nM; IC50 (Cytochrome P450 3A4 [5]): > 50000 nM; solubility [6]: < 1 µM; solubility [7]: < 1 µM; solubility [8]: > 2000 µM
Cc1c(C(=O)c2c(Cl)cccc2Cl)c2ccccc2n1-c1ccc(C(=O)O)cc1 | 92 |  |  | > 5000 | IC50 [9]: 156 nM
Cc1cccc(Cl)c1C(=O)c1cn(-c2ccc(C(=O)O)cc2F)c2cccc(F)c12 | 68 | 43 | 75 | 36 | 
Cc1cccc(Cl)c1C(=O)c1cn(-c2ccc(C(=O)O)cc2F)c2ccccc12 | 84 | 46 | 59 | 21 | 
O=C(O)c1ccc(-n2cc(C(=O)c3c(Cl)cccc3Cl)c3cccnc32)cc1 | 100 | 100 | 100 | 104 | IC50 [9]: 20 nM; solubility [6]: 1 µM (≈ 0.411 µg/mL); solubility [7]: 3 µM (≈ 1.23 µg/mL); solubility [8]: 407 µM (≈ 167 µg/mL)
O=C(O)c1ccc(-n2cc(C(=O)c3c(Cl)cccc3Cl)c3ccccc32)cc1O | 77 | 3 | 68 | 5 | 
O=C(O)c1ccc(-n2cc(C(=O)c3c(F)cc(F)cc3Cl)c3ccccc32)cc1 |  |  |  | 210 | 
O=C(O)c1ccc(-n2cc(C(=O)c3ccccc3Cl)c3ccccc32)cc1 | 96 |  |  | 205 | 
O=C(O)c1ccc(-n2cc(C(=O)c3c(Cl)cccc3Cl)c3ccccc32)cc1F | 92 |  |  | 290 | 
O=C(O)c1ccc(-n2cc(C(=O)c3c(Cl)cccc3C(F)(F)F)c3ccccc32)cc1 | 100 | 95 | 100 |  | IC50 (Cytochrome P450 1A2): > 25000 nM; IC50 (Cytochrome P450 2C9): 16000 nM; IC50 (Cytochrome P450 2C19): > 50000 nM; IC50 (Cytochrome P450 2D6): > 50000 nM; IC50 (Cytochrome P450 3A4 [10]): 37000 nM; IC50 (Cytochrome P450 3A4 [5]): > 50000 nM; solubility [6]: 10 µM (≈ 4.44 µg/mL); solubility [7]: 1 µM (≈ 0.444 µg/mL); solubility [8]: 1470 µM (≈ 654 µg/mL)
O=C(O)c1ccc(-n2cc(C(=O)c3c(F)cccc3F)c3ccccc32)cc1 | 94 | 88 | 92 | 445 | 
O=C(O)c1ccc(-n2cc(C(=O)c3c(Cl)cc(Cl)cc3Cl)c3ccccc32)cc1 | 90 |  |  | 107 | 
O=C(O)c1cc(F)c(-n2cc(C(=O)c3c(Cl)cccc3Cl)c3ccccc32)c(F)c1 | 75 | 30 | 94 | 10 | 
O=C(O)c1ccc(-n2cc(C(=O)c3c(Cl)cccc3Cl)c3ccccc32)c(F)c1F | 100 |  |  | 75 | 
O=C(O)c1ccc(-n2cc(C(=O)c3c(Cl)cccc3Cl)c3ccc(F)cc32)cc1 | 80 | 61 | 91 | 199 | 
O=C(O)c1ccc(-n2cc(C(=O)c3c(F)cccc3Cl)c3ccccc32)cc1 | 100 | 100 | 100 | 199 | IC50 [9]: 20 nM; IC50 (Cytochrome P450 1A2): 96600 nM; IC50 (Cytochrome P450 2C9): 9000 nM; IC50 (Cytochrome P450 2C19): > 100000 nM; IC50 (Cytochrome P450 2D6): > 100000 nM; IC50 (Cytochrome P450 3A4 [10]): > 100000 nM

Compound | remaining at 0.5 h, 1 µM [1] [%] | remaining at 0.5 h, 1 µM [2] [%] | remaining at 0.5 h, 1 µM [3] [%] | IC50 [4] [nM] | further results
COc1cccc2c(C(=O)c3c(Cl)cccc3Cl)cn(-c3ccc(C(=O)O)cc3)c12 | 83 |  |  | 731 | IC50 [9]: 350 nM
Cc1cc(-n2cc(C(=O)c3c(Cl)cccc3Cl)c3ccccc32)ccc1C(=O)O |  |  |  | 2010 | 
O=C(O)c1ccc(-n2cc(C(=O)c3c(Cl)cccc3Cl)c3ccccc32)c(Cl)c1 | 64 | 48 | 76 | 124 | 
Cc1cc(C(=O)O)ccc1-n1cc(C(=O)c2c(Cl)cccc2Cl)c2ccccc21 |  |  |  | 213 | 
O=C(O)c1ccc(-n2cc(C(=O)c3c(Cl)cccc3Cl)c3ccccc32)c(C(F)(F)F)c1 | 85 | 45 | 99 | > 3000 | 
O=C(O)c1ccc(-n2cc(C(=O)c3c(Cl)cccc3Cl)c3cc(F)ccc32)cc1 | 82 | 76 | 87 | 251 | 
Cc1cccc(Cl)c1C(=O)c1cn(-c2ccc(C(=O)O)cc2)c2c(F)cccc12 | 80 | 70 | 66 | 11 | IC50 (Cytochrome P450 2C9): 32000 nM; IC50 (Cytochrome P450 2C19): > 50000 nM; IC50 (Cytochrome P450 2D6): > 50000 nM; IC50 (Cytochrome P450 3A4 [5]): 27200 nM
O=C([O-])c1ccc(-n2cc(C(=O)c3c(Cl)cccc3Cl)c3ccccc32)cc1.[Na+] |  |  |  |  | solubility [6]: 52 µM; solubility [7]: 30 µM; solubility [8]: > 2000 µM
O=C(O)c1cc(Cl)c(-n2cc(C(=O)c3c(Cl)cccc3Cl)c3ccccc32)c(Cl)c1 |  |  |  | 506 | 
O=C(O)c1ccc(-n2cc(C(=O)c3c(Cl)cccc3Cl)c3cccc(Cl)c32)cc1 | 76 |  |  | 70 | 
Cc1cccc(Cl)c1C(=O)c1cn(-c2ccc(C(=O)O)cc2F)c2ncccc12 | 93 | 73 | 88 | 27 | IC50 (Cytochrome P450 1A2): > 50000 nM; IC50 (Cytochrome P450 2C19): > 50000 nM; IC50 (Cytochrome P450 3A4 [5]): > 50000 nM; solubility [6]: < 1 µM; solubility [7]: 1 µM (≈ 0.409 µg/mL); solubility [8]: 1960 µM (≈ 803 µg/mL)
O=C(O)c1ccc(-n2cc(C(=O)c3c(Cl)cccc3Cl)c3c(F)cccc32)c(F)c1 | 100 | 44 | 88 | 37 | IC50 (Cytochrome P450 1A2): > 50000 nM; IC50 (Cytochrome P450 2C9): 8010 nM; IC50 (Cytochrome P450 2C19): > 50000 nM; IC50 (Cytochrome P450 2D6): > 50000 nM; IC50 (Cytochrome P450 3A4 [5]): 8340 nM
Cc1cccc2c(C(=O)c3ccccc3Cl)cn(-c3ccc(C(=O)O)cc3F)c12 | 67 |  |  | 119 | IC50 [9]: 8.1 nM
Cc1cccc(Cl)c1C(=O)c1cn(-c2ccc(C(=O)O)cc2)c2cccc(F)c12 | 80 | 70 | 77 | 93 | 
O=C(O)c1ccc(-n2cc(C(=O)c3c(Cl)cccc3C(F)(F)F)c3c(F)cccc32)cc1 | 96 | 65 | 79 | 38 | IC50 (Cytochrome P450 1A2): > 50000 nM; IC50 (Cytochrome P450 2C9): 22600 nM; IC50 (Cytochrome P450 2C19): 50000 nM; IC50 (Cytochrome P450 2D6): > 50000 nM; IC50 (Cytochrome P450 3A4 [5]): 16400 nM
O=C(O)c1ccc(-n2cc(C(=O)c3c(Cl)cccc3C(F)(F)F)c3cccnc32)cc1 | 84 | 55 | 83 | 44 | 
O=C(O)c1ccc(-n2cc(C(=O)c3c(Cl)cccc3Cl)c3ccccc32)cc1C(F)(F)F | 61 | 61 | 71 | > 1000 | 

From ChEMBL document CHEMBL4346735, “Discovery and pharmacological evaluation of indole derivatives as potent and selective RORγt inverse agonist for multiple autoimmune conditions” (Bioorg Med Chem Lett, 2019)
